In patent US7939580B2, “Dental composition containing epoxy functional polymerizable compounds” (3M Innovative Properties Company, priority 2004, dated 2011):

Legend:
[1] = Refractive index (Kruess AR 4 D Abbe refractometer); format: physicochemical; conditions: 20.0° C., wavelength 589 nm
Description: The refractive index of the halogenated epoxy functional ether derivative was measured with a Kruess AR 4 D device (refractometer according to Abbe's measure principle). The refractive index was measured at 20.0° C. and at a wavelength of 589 nm.

[2] = tested on: Salmonella Strains TA98 and TA100; assay: AMES mutagenicity testing protocol (OECD Guideline 471, ISO 10993-3); format: cell-based; parameters: key: tested to be non mutagenic
Description: The mutagenicity of the halogenated epoxy functional ether derivative according to the AMES mutagenicity testing protocol has been tested according to OECD Guideline 471 and ISO 10993-3 (2003).

| Compound | Refractive Index [1] | Mutagenic [yes/no] [2] |
| --- | --- | --- |
| CC(C)(c1ccc(OCCC2CO2)cc1)c1ccc(OCCC2CO2)cc1 (stereo not shown) [Reference Compound 4, 2,2-Bis[4-(3,4-epoxy-butyloxy)-phenyl]-propane, reference compound] | 1.563 |  |
| c1cc(OCC2CO2)ccc1Cc1ccc(OCC2CO2)cc1 (stereo not shown) [Reference Compound 3, Bis[4-(2,3-epoxy-propyloxy)-phenyl]-methane, reference compound] | 1.579 |  |
| CC(C)(c1ccc(OCCCC2CO2)cc1)c1ccc(OCCCC2CO2)cc1 (stereo not shown) [Reference Compound 5, 2,2-Bis[4-(4,5-epoxy-pentyloxy)-phenyl]-propane, reference compound] | 1.551 |  |
| CC(C)(c1cc(Br)c(OCCC2CO2)c(Br)c1)c1cc(Br)c(OCCC2CO2)c(Br)c1 (stereo not shown) [Example 4, 2,2-Bis[3,5-dibromo-4-(3,4-epoxy-butyloxy)-phenyl]-propane] | 1.610 | n^1) |
| C[Si](CCC1CCC2OC2C1)(CCC1CCC2OC2C1)c1ccccc1 (stereo not shown) [Reference Compound 2, Bis[2-(3,4-epoxycyclohexyl)-ethyl]-methyl-phenyl-silane, reference compound] | 1.536 |  |
| CC(C)(c1cc(Br)c(OCCCC2CO2)c(Br)c1)c1cc(Br)c(OCCCC2CO2)c(Br)c1 (stereo not shown) [Example 5, 2,2-Bis[3,5-dibromo-4-(4,5-epoxy-pentyloxy)-phenyl]-propane] | 1.604 | n^1) |
| Clc1cccc(CC2CO2)c1OCCC1CO1 (stereo not shown) [Example 6, 4-[2-(2,3-epoxy-propyl)-6-chloro-phenoxy]-1,2-epoxybutane] | 1.535 |  |
| 1,5-Bis[2-(2,3-epoxy-propyl)-6-chloro-phenyl]-pentane [Example 1] | 1.552 | n^1) |
| 1,5-Bis[2-(2,3-epoxy-propyl)-4,6-dichloro-phenyl]-pentane [Example 2] | 1.561 | n^1) |
| C[Si]1(CCC2CCC3OC3C2)O[Si](C)(CCC2CCC3OC3C2)O[Si](C)(CCC2CCC3OC3C2)O[Si](C)(CCC2CCC3OC3C2)O1 (stereo not shown) [Reference Compound 1, 1,3,5,7-Tetrakis[2-(3,4-epoxycyclohexyl)-ethyl]-1,3,5,7-tetramethyl-cyclotetrasiloxane, reference compound] | 1.496 |  |
| CC(C)(c1cc(Cl)c(OCCCC2CO2)c(Cl)c1)c1cc(Cl)c(OCCCC2CO2)c(Cl)c1 (stereo not shown) [Example 3, 2,2-Bis[3,5-dichloro-4-(4,5-epoxy-pentyloxy)-phenyl]-propane] | 1.571 | n^1) |
